Measurements published in the supplement of paper PMC10733146.

Columns and labels:
Assay in all cases: viability relative to DMSO control (fraction); higher = less drug effect (more viable cells)
Conditions in all cases: 48 h
[1] = tested on: primary ALL patient cells (S048)
In short: (§1)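 Viability is given as CellTiter-Glo luminescence relative to the median of 16 inner DMSO wells. Fresh or cryopreserved primary mononuclear tumour cells from blood, bone marrow (both Ficoll-isolated) or processed lymph node were plated at 4 × 10^4 cells per well in 384-well plates against five pre-plated compound concentrations, one well each. Incubation lasted 48 h at 37 °C and 5% CO2 in RPMI-1640 with penicillin/streptomycin, L-glutamine and human serum.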

[2] = tested on: primary ALL patient cells (S088)
In short: as §1

[3] = tested on: primary AML patient cells (S006)
In short: as §1

[4] = tested on: primary AML patient cells (S011)
In short: as §1

[5] = tested on: primary AML patient cells (S012)
In short: as §1

[6] = tested on: primary AML patient cells (S017)
In short: as §1

[7] = tested on: primary AML patient cells (S021)
In short: as §1

[8] = tested on: primary AML patient cells (S056)
In short: as §1

[9] = tested on: primary AML patient cells (S060)
In short: as §1

[10] = tested on: primary AML patient cells (S081)
In short: as §1

[11] = tested on: primary AML patient cells (S085)
In short: as §1

[12] = tested on: primary B-PLL patient cells (S016)
In short: as §1

[13] = tested on: primary BL patient cells (S005)
In short: as §1

[14] = tested on: primary CLL patient cells (S031)
In short: as §1

[15] = tested on: primary CLL patient cells (S043)
In short: as §1

[16] = tested on: primary FL patient cells (S022)
In short: as §1

[17] = tested on: primary FL patient cells (S087)
In short: as §1

[18] = tested on: primary MCL patient cells (S053)
In short: as §1

[19] = tested on: primary MCL patient cells (S063)
In short: as §1

[20] = tested on: primary MCL patient cells (S068)
In short: as §1

N#CC[C@H](C1CCCC1)n1cc(-c2ncnc3[nH]ccc23)cn1 [Ruxolitinib]
viability ([1]; 0.024 µM): 1.03 | viability ([1]; 0.12 µM): 0.945 | viability ([1]; 0.6 µM): 0.963 | viability ([1]; 3 µM): 0.988 | viability ([1]; 15 µM): 0.852 | viability ([2]; 0.024 µM): 0.974 | viability ([2]; 0.12 µM): 0.912 | viability ([2]; 0.6 µM): 0.994 | viability ([2]; 3 µM): 0.986 | viability ([2]; 15 µM): 0.94 | viability ([3]; 0.024 µM): 1.04 | viability ([3]; 0.12 µM): 0.921 | viability ([3]; 0.6 µM): 0.963 | viability ([3]; 3 µM): 0.904 | viability ([3]; 15 µM): 0.656 | viability ([4]; 0.024 µM): 1.26 | viability ([4]; 0.12 µM): 0.955 | viability ([4]; 0.6 µM): 1.06 | viability ([4]; 3 µM): 0.919 | viability ([4]; 15 µM): 0.743 | viability ([5]; 0.024 µM): 0.973 | viability ([5]; 0.12 µM): 0.973 | viability ([5]; 0.6 µM): 1.03 | viability ([5]; 3 µM): 0.951 | viability ([5]; 15 µM): 0.846 | viability ([6]; 0.024 µM): 1.05 | viability ([6]; 0.12 µM): 1.03 | viability ([6]; 0.6 µM): 1.09 | viability ([6]; 3 µM): 1 | viability ([6]; 15 µM): 0.907 | viability ([7]; 0.024 µM): 0.919 | viability ([7]; 0.12 µM): 0.801 | viability ([7]; 0.6 µM): 0.844 | viability ([7]; 3 µM): 0.779 | viability ([7]; 15 µM): 0.723 | viability ([8]; 0.024 µM): 0.954 | viability ([8]; 0.12 µM): 0.894 | viability ([8]; 0.6 µM): 0.814 | viability ([8]; 3 µM): 0.891 | viability ([8]; 15 µM): 0.69 | viability ([9]; 0.024 µM): 0.992 | viability ([9]; 0.12 µM): 0.932 | viability ([9]; 0.6 µM): 0.924 | viability ([9]; 3 µM): 0.919 | viability ([9]; 15 µM): 0.896 | viability ([10]; 0.024 µM): 1.02 | viability ([10]; 0.12 µM): 0.9 | viability ([10]; 0.6 µM): 0.951 | viability ([10]; 3 µM): 0.854 | viability ([10]; 15 µM): 0.817 | viability ([11]; 0.024 µM): 1.42 | viability ([11]; 0.12 µM): 0.921 | viability ([11]; 0.6 µM): 0.861 | viability ([11]; 3 µM): 0.806 | viability ([11]; 15 µM): 0.651 | viability ([12]; 0.024 µM): 1.16 | viability ([12]; 0.12 µM): 0.98 | viability ([12]; 0.6 µM): 1.08 | viability ([12]; 3 µM): 0.965 | viability ([12]; 15 µM): 0.894 | viability ([13]; 0.024 µM): 1.01 | viability ([13]; 0.12 µM): 1.18 | viability ([13]; 0.6 µM): 0.974 | viability ([13]; 3 µM): 1.15 | viability ([13]; 15 µM): 1.03 | viability ([14]; 0.024 µM): 1.06 | viability ([14]; 0.12 µM): 1 | viability ([14]; 0.6 µM): 1.04 | viability ([14]; 3 µM): 0.896 | viability ([14]; 15 µM): 0.689 | viability ([15]; 0.024 µM): 0.915 | viability ([15]; 0.12 µM): 1.05 | viability ([15]; 0.6 µM): 0.938 | viability ([15]; 3 µM): 1.05 | viability ([15]; 15 µM): 0.966 | viability ([16]; 0.024 µM): 0.968 | viability ([16]; 0.12 µM): 0.882 | viability ([16]; 0.6 µM): 1.05 | viability ([16]; 3 µM): 0.908 | viability ([16]; 15 µM): 0.893 | viability ([17]; 0.024 µM): 1.02 | viability ([17]; 0.12 µM): 0.929 | viability ([17]; 0.6 µM): 0.942 | viability ([17]; 3 µM): 0.962 | viability ([17]; 15 µM): 0.871 | viability ([18]; 0.024 µM): 1.03 | viability ([18]; 0.12 µM): 0.928 | viability ([18]; 0.6 µM): 1.02 | viability ([18]; 3 µM): 1.03 | viability ([18]; 15 µM): 0.831 | viability ([19]; 0.024 µM): 1.02 | viability ([19]; 0.12 µM): 0.939 | viability ([19]; 0.6 µM): 0.975 | viability ([19]; 3 µM): 0.932 | viability ([19]; 15 µM): 0.875 | viability ([20]; 0.024 µM): 0.978 | viability ([20]; 0.12 µM): 0.987 | viability ([20]; 0.6 µM): 0.989 | viability ([20]; 3 µM): 1.05 | viability ([20]; 15 µM): 0.947

CO[C@H]1C[C@@H]2CC[C@@H](C)[C@@](O)(O2)C(=O)C(=O)N2CCCC[C@H]2C(=O)O[C@H]([C@H](C)C[C@@H]2CC[C@@H](OC(=O)C(C)(CO)CO)[C@H](OC)C2)CC(=O)[C@H](C)/C=C(\C)[C@@H](O)[C@@H](OC)C(=O)[C@H](C)C[C@H](C)/C=C/C=C/C=C/1C [Temsirolimus]
viability ([1]; 0.032 µM): 0.747 | viability ([1]; 0.16 µM): 0.706 | viability ([1]; 0.8 µM): 0.702 | viability ([1]; 4 µM): 0.748 | viability ([1]; 20 µM): 0.49 | viability ([2]; 0.032 µM): 0.737 | viability ([2]; 0.16 µM): 0.688 | viability ([2]; 0.8 µM): 0.693 | viability ([2]; 4 µM): 0.703 | viability ([2]; 20 µM): 0.576 | viability ([3]; 0.032 µM): 0.824 | viability ([3]; 0.16 µM): 0.746 | viability ([3]; 0.8 µM): 0.709 | viability ([3]; 4 µM): 0.65 | viability ([3]; 20 µM): 0.415 | viability ([4]; 0.032 µM): 0.88 | viability ([4]; 0.16 µM): 0.805 | viability ([4]; 0.8 µM): 0.892 | viability ([4]; 4 µM): 0.84 | viability ([4]; 20 µM): 0.498 | viability ([5]; 0.032 µM): 0.814 | viability ([5]; 0.16 µM): 0.732 | viability ([5]; 0.8 µM): 0.85 | viability ([5]; 4 µM): 0.845 | viability ([5]; 20 µM): 0.702 | viability ([6]; 0.032 µM): 0.724 | viability ([6]; 0.16 µM): 0.765 | viability ([6]; 0.8 µM): 0.739 | viability ([6]; 4 µM): 0.727 | viability ([6]; 20 µM): 0.634 | viability ([7]; 0.032 µM): 0.761 | viability ([7]; 0.16 µM): 0.846 | viability ([7]; 0.8 µM): 0.818 | viability ([7]; 4 µM): 0.737 | viability ([7]; 20 µM): 0.605 | viability ([8]; 0.032 µM): 0.606 | viability ([8]; 0.16 µM): 0.789 | viability ([8]; 0.8 µM): 0.847 | viability ([8]; 4 µM): 0.735 | viability ([8]; 20 µM): 0.425 | viability ([9]; 0.032 µM): 1.05 | viability ([9]; 0.16 µM): 1.04 | viability ([9]; 0.8 µM): 1.04 | viability ([9]; 4 µM): 1.06 | viability ([9]; 20 µM): 1 | viability ([10]; 0.032 µM): 0.885 | viability ([10]; 0.16 µM): 0.884 | viability ([10]; 0.8 µM): 0.926 | viability ([10]; 4 µM): 0.969 | viability ([10]; 20 µM): 0.869 | viability ([11]; 0.032 µM): 0.852 | viability ([11]; 0.16 µM): 0.752 | viability ([11]; 0.8 µM): 0.918 | viability ([11]; 4 µM): 0.79 | viability ([11]; 20 µM): 0.58 | viability ([12]; 0.032 µM): 0.618 | viability ([12]; 0.16 µM): 0.598 | viability ([12]; 0.8 µM): 0.653 | viability ([12]; 4 µM): 0.614 | viability ([12]; 20 µM): 0.561 | viability ([13]; 0.032 µM): 0.775 | viability ([13]; 0.16 µM): 0.707 | viability ([13]; 0.8 µM): 0.784 | viability ([13]; 4 µM): 0.775 | viability ([13]; 20 µM): 0.653 | viability ([14]; 0.032 µM): 0.795 | viability ([14]; 0.16 µM): 0.708 | viability ([14]; 0.8 µM): 0.8 | viability ([14]; 4 µM): 0.831 | viability ([14]; 20 µM): 0.701 | viability ([15]; 0.032 µM): 0.749 | viability ([15]; 0.16 µM): 0.745 | viability ([15]; 0.8 µM): 0.738 | viability ([15]; 4 µM): 0.733 | viability ([15]; 20 µM): 0.692 | viability ([16]; 0.032 µM): 0.962 | viability ([16]; 0.16 µM): 0.821 | viability ([16]; 0.8 µM): 0.966 | viability ([16]; 4 µM): 0.917 | viability ([16]; 20 µM): 0.569 | viability ([17]; 0.032 µM): 0.833 | viability ([17]; 0.16 µM): 0.813 | viability ([17]; 0.8 µM): 0.84 | viability ([17]; 4 µM): 0.82 | viability ([17]; 20 µM): 0.713 | viability ([18]; 0.032 µM): 0.884 | viability ([18]; 0.16 µM): 0.879 | viability ([18]; 0.8 µM): 0.927 | viability ([18]; 4 µM): 0.898 | viability ([18]; 20 µM): 0.755 | viability ([19]; 0.032 µM): 0.913 | viability ([19]; 0.16 µM): 0.892 | viability ([19]; 0.8 µM): 0.9 | viability ([19]; 4 µM): 0.946 | viability ([19]; 20 µM): 0.843 | viability ([20]; 0.032 µM): 0.604 | viability ([20]; 0.16 µM): 0.614 | viability ([20]; 0.8 µM): 0.608 | viability ([20]; 4 µM): 0.738 | viability ([20]; 20 µM): 1.01
